Experiments:
5-HT2B = target: T1, 5-HT2B (Homo sapiens, UniProt P41595); assay: FLIPR Ca2+ flux agonist assay at 5-HT2B; assay type: cell-based; details: for 5-HT2B % Act @ Max Dose: Ca2+ flux, HEK293, max dose
T1 construct: host or cells: HEK293

5-HT2A = 5-HT2A (Homo sapiens, UniProt P28223); assay: FLIPR Ca2+ flux agonist assay at 5-HT2A; assay type: cell-based; set-up: host or cells: HEK293; details: for 5-HT2A % Act @ Max Dose: Ca2+ flux, HEK293, max dose
[1] = Metabolic stability in human liver microsomes (HLM); set-up: microsomal CLint / half-life: dose or concentration left out as unconfirmed; details: for half-life / microsomal CLint: both, human, pooled human liver microsomes, pH 7.4
[2] = Stability in mouse brain homogenate; assay type: in vitro ADME, male CD-1 mice; details: mouse brain homogenate, 1 μM, 37° C.; for half-life at 1 µM: male, CD-1
[3] = Plasma pharmacokinetics in rats after intravenous administration; details: for AUC(0-t) / C0 / half-life: male, Sprague Dawley, rat, plasma, iv, 1 mg/kg
[4] = tested on: monoamine oxidase A and B (MAO-A and MAO-B); assay: Stability in the presence of monoamine oxidases (human liver mitochondria preparation); set-up: half-life / microsomal CLint: dose or concentration left out as unconfirmed; details: for stability in the presence of MAO (in words): human liver mitochondria preparation; for Remaining (t = 60 min) / half-life / microsomal CLint: human liver mitochondria; for half-life / microsomal CLint: human, pH 7.4
Method: Liver Mitochondria Incubations. Human liver mitochondria (Xenotech H0610.M) were used.

5-HT2C receptor = target: T2, 5-HT2C receptor (Homo sapiens, UniProt P28335); assay: cell-based; assay type: cell-based; details: Ca2+ flux
T2 sequence (P28335 33-458): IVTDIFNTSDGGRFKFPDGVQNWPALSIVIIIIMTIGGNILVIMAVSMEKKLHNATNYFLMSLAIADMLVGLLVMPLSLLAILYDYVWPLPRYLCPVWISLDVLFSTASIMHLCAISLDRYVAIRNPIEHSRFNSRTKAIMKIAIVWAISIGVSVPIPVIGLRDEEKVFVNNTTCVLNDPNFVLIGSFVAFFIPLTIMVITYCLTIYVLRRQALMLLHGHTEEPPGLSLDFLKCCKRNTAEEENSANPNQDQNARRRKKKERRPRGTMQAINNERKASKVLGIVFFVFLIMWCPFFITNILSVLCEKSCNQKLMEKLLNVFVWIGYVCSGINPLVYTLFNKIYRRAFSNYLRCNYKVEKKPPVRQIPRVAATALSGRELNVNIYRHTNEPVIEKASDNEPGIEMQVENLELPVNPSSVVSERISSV

5-HT1A = target: T3, 5-HT1A (Homo sapiens, UniProt P08908); assay: FLIPR Ca2+ flux agonist assay at 5-HT1A; assay type: cell-based; details: for 5-HT1A % Act @ Max Dose: Ca2+ flux, CHO cells
T3 construct: host or cells: CHO cells
T3 sequence (P08908 1-422): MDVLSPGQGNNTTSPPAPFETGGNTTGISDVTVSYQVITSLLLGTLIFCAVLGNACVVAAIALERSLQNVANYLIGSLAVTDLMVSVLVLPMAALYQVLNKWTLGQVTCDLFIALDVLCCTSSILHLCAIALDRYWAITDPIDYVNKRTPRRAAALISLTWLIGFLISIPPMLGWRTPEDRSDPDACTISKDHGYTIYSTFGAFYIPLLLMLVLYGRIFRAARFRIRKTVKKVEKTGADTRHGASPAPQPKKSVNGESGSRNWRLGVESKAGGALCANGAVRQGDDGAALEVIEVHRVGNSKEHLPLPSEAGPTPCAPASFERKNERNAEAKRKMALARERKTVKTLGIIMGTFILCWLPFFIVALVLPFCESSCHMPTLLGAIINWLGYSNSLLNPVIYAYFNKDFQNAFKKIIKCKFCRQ

[5] = human liver mitochondria 0.30 mg protein/mL, 37° C.

T1 sequence (P41595 whole entry, species assumed): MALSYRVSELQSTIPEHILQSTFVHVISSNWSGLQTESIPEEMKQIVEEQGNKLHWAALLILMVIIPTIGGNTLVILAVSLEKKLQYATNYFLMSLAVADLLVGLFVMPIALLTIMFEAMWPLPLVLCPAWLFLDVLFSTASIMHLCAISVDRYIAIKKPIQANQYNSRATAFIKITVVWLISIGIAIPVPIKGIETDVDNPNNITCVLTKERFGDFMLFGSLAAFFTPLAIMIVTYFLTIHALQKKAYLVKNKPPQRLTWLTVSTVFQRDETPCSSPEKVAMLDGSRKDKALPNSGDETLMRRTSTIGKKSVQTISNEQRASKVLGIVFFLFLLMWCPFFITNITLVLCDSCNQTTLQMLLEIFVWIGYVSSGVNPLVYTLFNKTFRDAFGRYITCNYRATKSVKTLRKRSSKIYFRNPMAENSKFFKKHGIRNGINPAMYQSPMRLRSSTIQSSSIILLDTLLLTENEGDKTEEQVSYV
Sequence of 5-HT2A (P28223 whole entry): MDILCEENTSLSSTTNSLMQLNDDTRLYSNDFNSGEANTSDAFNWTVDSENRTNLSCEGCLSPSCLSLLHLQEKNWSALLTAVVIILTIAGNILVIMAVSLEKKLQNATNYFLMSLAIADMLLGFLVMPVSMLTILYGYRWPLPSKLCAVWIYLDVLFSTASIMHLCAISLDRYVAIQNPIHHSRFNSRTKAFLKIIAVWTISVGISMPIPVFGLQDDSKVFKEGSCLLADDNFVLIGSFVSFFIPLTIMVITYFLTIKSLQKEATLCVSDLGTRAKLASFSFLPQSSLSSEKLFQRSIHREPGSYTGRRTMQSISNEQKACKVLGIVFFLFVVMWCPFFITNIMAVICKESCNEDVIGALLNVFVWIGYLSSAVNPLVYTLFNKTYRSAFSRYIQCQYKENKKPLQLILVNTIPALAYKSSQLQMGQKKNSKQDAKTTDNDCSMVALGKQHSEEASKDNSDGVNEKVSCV

SMILES | EC50 (5-HT2B) | 5-HT2B % Act @ Max Dose (5-HT2B) | EC50 (5-HT2A) | 5-HT2A % Act @ Max Dose (5-HT2A) | % Compound Remaining (after 120 min) [2] | AUC(0-t) [3] | C0 [3] | half-life [3] | stability in the presence of MAO (in words) [4] | Remaining (t = 60 min) [4] | EC50 (5-HT2C receptor) | 5-HT2C % Act @ Max Dose (5-HT2C receptor) | EC50 (5-HT1A) | 5-HT1A % Act @ Max Dose (5-HT1A) | half-life [1] | microsomal CLint [1] | half-life at 1 µM [2] | half-life [4] | microsomal CLint [4] | also measured
CN(C)CCc1c[nH]c2ccc(F)cc12 [Compound 5-F-DMT, reference compound] | 9.71 nM | 17.6% | 6.94 nM | 94.7% | 0.0% | 35.5 ng·h/mL | 338 ng/mL | 4.8 min | rapidly metabolized by MAO | 0.9% | 4.94 nM | 93.9% | 5720 nM | 72.9% | – | – | – | – | – | t1/2 ([1]; HLM 0.50 mg protein/mL, NADPH, 37° C., 60 minutes): 4.6 min; t1/2 [2]: 3.1 min; plasma half-life (in words) ([3]; rats, IV 1 mg/kg): very short half-lives; CLint(MAO) [4, 5]: 266 µL/min/mg; t1/2 [4, 5]: 8.7 min
CC(C)NCCc1c[nH]c2ccc(F)c(O)c12 [Compound 35, 5-fluoro-3-(2-(isopropylamino)ethyl)-1H-indol-4-ol] | 95.9 nM | 27.19% | 45.7 nM | 94.57% | 40% | 126 ng·h/mL | 348 ng/mL | 26.4 min | intermediate stability | 22.8% | 324 nM | 74.81% | 93800 nM | 48.74% | 45.7 min | 30.3 µL/min/mg | 90.5 min | 29 min | 79.6 µL/min/mg | –
CCNCCc1c[nH]c2ccc(F)c(O)c12 [Compound 28, 3-(2-(ethylamino)ethyl)-5-fluoro-1H-indol-4-ol] | 38.6 nM | 19.83% | 10.5 nM | 92.60% | 1.9% | 86.7 ng·h/mL | 249 ng/mL | 27.6 min | intermediate stability | 46.4% | 69.7 nM | 99.03% | 9210 nM | 60.29% | 42.3 min | 32.8 µL/min/mg | 22.1 min | 56.5 min | 40.9 µL/min/mg | –

Reference: patent US20260234107A1, “TRYPTAMINES AND METHODS OF TREATING MOOD DISORDERS” (priority 2022, published 2026)
